Experimental data reported in patent US20230346827A1 (priority 2020, published 2023).

Tests used:
[1] = tested on: HDFn + (IL-1β, TNFα, IFNy, EGF, bFGF and PDGF-BB); experiment: BioMAP HDF3CGF system; type: cell-based, human; conditions: annotated relative to vehicle controls
Description: (§1) Cell types and stimuli used in each system are as follows: 3C system [HUVEC + (IL-1β, TNFα and IFNy)], 4H system [HUVEC + (IL-4 and histamine)], LPS system [PBMC and HUVEC + LPS (TLR4 ligand)], SAg system [PBMC and HUVEC + TCR ligands], BT system [CD19+ B cells and PBMC + (α-IgM and TCR ligands)], BF4T system [bronchial epithelial cells and HDFn + (TNFα and IL-4)], BE3C system [bronchial epithelial cells + (IL-1β, TNFα and IFNy)], CASM3C system [coronary artery smooth muscle cells + (IL-1 β, TNFα and IFNy)], HDF3CGF system [HDFn + (IL-1β, TNFα, IFNy, EGF, bFGF and PDGF-BB)], KF3CT system [keratinocytes and HDFn + (IL-1β, TNFα, IFNy and TGFβ)], MyoF system [differentiated lung myofibroblasts + (TNFα and TGFβ)] and Mphg system [HUVEC and M1 macrophages + Zymosan (TLR2 ligand)].
Systems are derived from either single cell types or co-culture systems. Adherent cell types are cultured in 96 or 384-well plates until confluence, followed by the addition of PBMC (SAg and LPS systems). […] Soluble factors from supernatants are quantified using either HTRF® detection, bead-based multiplex immunoassay or capture ELISA. Overt adverse effects of test agents on cell proliferation and viability (cytotoxicity) are detected by sulforhodamine B (SRB) staining, for adherent cells, and alamarBlue® reduction for cells in suspension. […]

human primary cells = experiment: BioMAP Diversity PLUS panel (12 human primary cell-based systems)
Description: Four concentrations of LMW-DS (ILB®, Tikomed AB, Viken, Sweden, WO 2016/076780; 150 nM, 440 nM, 1.3 µM, 4 µM) were investigated in the BioMAP® Diversity PLUS panel by Eurofins.
Human primary cells in BioMAP systems are used at early passage (passage 4 or earlier) to minimize adaptation to cell culture conditions and preserve physiological signaling responses. All cells are from a pool of multiple donors (n = 2 - 6), commercially purchased and handled according to the recommendations of the manufacturers. Human blood derived CD14+ monocytes are differentiated into macrophages in vitro before being added to the Mphg system. Abbreviations are used as follows: Human umbilical vein endothelial cells (HUVEC), Peripheral blood mononuclear cells (PBMC), Human neonatal dermal fibroblasts (HDFn), B cell receptor (BCR), T cell receptor (TCR) and Toll-like receptor (TLR).
as §1
Systems are derived from either single cell types or co-culture systems. Adherent cell types are cultured in 96 or 384-well plates until confluence, followed by the addition of PBMC (SAg and LPS systems). The BT system consists of CD19+ B cells co-cultured with PBMC and stimulated with a BCR activator and low levels of TCR stimulation. […] Each plate contains drug controls (e.g., legacy control test agent colchicine at 1.1 µM), negative controls (e.g., non-stimulated conditions) and vehicle controls (e.g., 0.1% DMSO) appropriate for each system. Direct ELISA is used to measure biomarker levels of cell-associated and cell membrane targets. Soluble factors from supernatants are quantified using either HTRF® detection, bead-based multiplex immunoassay or capture ELISA. Overt adverse effects of test agents on cell proliferation and viability (cytotoxicity) are detected by sulforhodamine B (SRB) staining, for adherent cells, and alamarBlue® reduction for cells in suspension. For proliferation assays, individual cell types are cultured at subconfluence and measured at time points optimized for each system (48-hrs: 3C and CASM3C systems; 72-hrs: BT and HDF3CGF systems; 96-hrs: SAg system). Cytotoxicity for adherent cells is measured by SRB (24-hrs: 3C, 4H, LPS, SAg, BF4T, BE3C, CASM3C, HDF3CGF, KF3CT, and Mphg systems; 48-hrs: MyoF system), and by alamarBlue staining for cells in suspension (24-hrs: SAg system; 42-hrs: BT system) at the time points indicated.
Biomarker measurements in a test agent-treated sample are divided by the average of control samples (at least 6 vehicle controls from the same plate) to generate a ratio that is then log10 transformed. Significance prediction envelopes are calculated using historical vehicle control data at a 95% confidence interval.
Biomarker activities are annotated when 2 or more consecutive concentrations change in the same direction relative to vehicle controls, are outside of the significance envelope and have at least one concentration with an effect size > 20% (|log10 ratio| > 0.1). Biomarker key activities are described as modulated if these activities increase in some systems, but decrease in others. […]

[2] = tested on: Human trabecular meshwork cells; experiment: Fibronectin immunofluorescence in TGFβ2-stimulated trabecular meshwork cells; type: cell-based; conditions: TGFβ2 1.0 ng/ml + LMW-DS 4.0 µM, 72 hours
Description: Human trabecular meshwork cells (TMC-6590; ScienCell Research Laboratories, Carlsbad, CA) were cultured in TMC (6591; ScienCell Research Laboratories) complete medium and maintained at 37° C. in 5% CO2 until reaching 80-90% confluency. Cells were plated at densities of 5000-10000 cells per well in Greiner-Bio Cell 96 Well black Cell Culture Microplates (655090, Sigma) and left to adhere overnight. The following day cells were treated with TGFβ2 (1.0 ng/ml; Preprotech) and/or LMW-DS (4.0 µM; Tikomed AB) under serum free conditions for 72 hrs.
After 72 hrs treatments, cells were fixed using 4% PFA in PBS (28908, Thermo Fisher Scientific) for 10 minutes, washed with PBS and then washed with PBS containing saponin-based permeabilization buffer (00-8333-56, Thermo Fisher Scientific). Cells were then immunostained with anti-human Fibronectin Alexa Fluor® 488 (53-9869-82, Thermo Fisher Scientific) and nuclear stain Hoeschst 33342 (H21492, Thermo Fisher Scientific) in permeabilizing buffer in the dark for 1 hr at room temperature. […] Images were analyzed using the Yokogawa image analysis software.

[3] = target: oligomeric amyloid-β / PrP^c interaction (Homo sapiens, UniProt P04156); type: binding

sodium salt of dextran sulfate [LMW-DS]
Decreased biomarker activity [1]: VCAM-1, IP-10, ITAC, MIG, M-CSF
Increased biomarker activity [1]: EGFR, MMP-1, PAI-1
annotated readouts (human primary cells; 150 nM, 440 nM, 1.3 µM, 4 µM): 25
cytotoxicity for human primary cells (human primary cells; at the concentrations tested (150 nM - 4 µM)): not cytotoxic
thrombomodulin (TM) (human primary cells; hemostasis-related activity): increased
CD69 (human primary cells; immunomodulatory activity): increased
M-CSF (human primary cells; immunomodulatory activity): decreased
secreted immunoglobulin G (sIgG) (human primary cells; immunomodulatory activity): decreased
soluble IL-17A (sIL-17A) (human primary cells; immunomodulatory activity): increased
Eotaxin 3 (Eot3) (human primary cells; inflammation-related activity): increased
I-TAC (human primary cells; inflammation-related activity): decreased
IL-8 (human primary cells; inflammation-related activity): increased
IP-10 (human primary cells; inflammation-related activity): decreased
MCP-1 (human primary cells; inflammation-related activity): decreased
MIG (human primary cells; inflammation-related activity): decreased
VCAM-1 (human primary cells; inflammation-related activity): decreased
sTNFα (human primary cells; inflammation-related activity): decreased
EGFR (human primary cells; tissue remodeling activity): increased
MMP-1 (human primary cells; tissue remodeling activity): increased
PAI-1 (human primary cells; tissue remodeling activity): increased
uPAR (human primary cells; tissue remodeling activity): increased
antiproliferative effect on human primary endothelial cells (human primary cells; top concentration only (4 µM)): modestly and selectively antiproliferative
fibronectin levels (quantification of fibronectin staining) [2]: 1136 ± 155
Competable binding (%) [3]: 85±4%
Hill coefficient [3]: 1.00±0.21
IC50 [3]: 0.42 ± 0.16 µg/mL
